Converted amounts (≈) assume the structure as drawn.
What was measured:
[1] = tested on: Blumeria graminis f. sp. tritici; experiment: Antifungal activity against Erysiphe graminis f. sp. tritici at […] relative to control; format: functional
[2] = Partition coefficient, log P by chromatographic hydrophobicity method; format: physicochemical; conditions: octanol/water
[3] = Aqueous solubility at pH 7.0; format: physicochemical
[4] = Partition coefficient, log P of the compound; format: physicochemical; conditions: octanol/water

| Structure (SMILES) | Activity [1] | logP [2] | solubility [3] | logP [4] |
| --- | --- | --- | --- | --- |
| CCN(CC)c1nc2sc3c(OC)nnnc3c2c2c1CCCC2 | 100% | 5.32 | 0.08 µg/mL (≈ 0.233 µM) |  |
| COCCN(C)c1nc2sc3c(OC)nnnc3c2c2c1CCCC2 | 100% | 4.31 | 0.32 µg/mL (≈ 0.89 µM) |  |
| COCCOc1nnnc2c1sc1nc(N3CCOCC3)c3c(c12)CCCC3 | 100% | 3.82 | 0.21 µg/mL (≈ 0.523 µM) |  |
| c1coc(COc2nnnc3c2sc2nc(N4CCOCC4)c4c(c23)CCCC4)c1 | 0% |  |  |  |
| COc1nnnc2c1sc1nc(N(C)Cc3ccccc3)c3c(c12)CCCC3 | 100% |  |  |  |
| COc1nnnc2c1sc1nc(N3CCOCC3)c3c(c12)CCCC3 | 100% | 4.06 | 0.08 µg/mL (≈ 0.224 µM) | 4.25 |
| C1CCc2c(c(N3CCOCC3)nc3sc4c(N5CCOCC5)nnnc4c23)C1 | 0% |  |  |  |
| CCSc1nnnc2c1sc1nc(N3CCOCC3)c3c(c12)CCCC3 | 100% |  |  |  |
| Clc1nnnc2c1sc1nc(N3CCOCC3)c3c(c12)CCCC3 | 0% |  |  |  |
| CSc1nnnc2c1sc1nc(N3CCOCC3)c3c(c12)CCCC3 | 100% |  |  |  |
| CCOc1nnnc2c1sc1nc(N3CCOCC3)c3c(c12)CCCC3 | 100% |  |  |  |
| COCCNc1nnnc2c1sc1nc(N3CCOCC3)c3c(c12)CCCC3 | 0% |  |  |  |
| c1ccc(NNc2nnnc3c2sc2nc(N4CCOCC4)c4c(c23)CCCC4)cc1 | 0% |  |  |  |
| CC(Cc1ccc(C(C)(C)C)cc1)CN1C[C@@H](C)O[C@@H](C)C1 (stereo partly specified) [FENPROPIMORPH] | 97% |  |  |  |
| C1CCc2c(c(N3CCOCC3)nc3sc4c(OC5CCCC5)nnnc4c23)C1 | 0% |  |  |  |
| CCCCNc1nnnc2c1sc1nc(N3CCOCC3)c3c(c12)CCCC3 | 0% |  |  |  |

| Structure (SMILES) | Activity [1] | logP [2] | solubility [3] | logP [4] |
| --- | --- | --- | --- | --- |
| CCN(CC)c1nnnc2c1sc1nc(N3CCOCC3)c3c(c12)CCCC3 | 0% |  |  |  |
| COc1nnnc2c1sc1nc(OS(=O)(=O)C(F)(F)F)c3c(c12)CCCC3 | 40% |  |  |  |
| Sc1nnnc2c1sc1nc(N3CCOCC3)c3c(c12)CCCC3 | 0% |  |  |  |
| COCCOc1nnnc2c1sc1nc(N(C)CCOC)c3c(c12)CCCC3 | 100% | 4.12 | 0.48 µg/mL (≈ 1.19 µM) |  |
| CCCOc1nc2sc3c(OC)nnnc3c2c2c1CCCC2 | 100% |  |  |  |
| NNc1nnnc2c1sc1nc(N3CCOCC3)c3c(c12)CCCC3 | 0% |  |  |  |
| CC(C)Oc1nnnc2c1sc1nc(N3CCOCC3)c3c(c12)CCCC3 | 0% |  |  |  |
| c1ccc(CSc2nnnc3c2sc2nc(N4CCOCC4)c4c(c23)CCCC4)cc1 | 0% |  |  |  |
| COCCNc1nc2sc3c(OC)nnnc3c2c2c1CCCC2 | 33% | 3.9 | 0.14 µg/mL (≈ 0.405 µM) |  |
| COc1nnnc2c1sc1nc(O)c3c(c12)CCCC3 | 0% |  |  |  |
| CCCCN(C)c1nc2sc3c(OC)nnnc3c2c2c1CCCC2 | 83% |  |  |  |
| COCCN(CCOC)c1nc2sc3c(OC)nnnc3c2c2c1CCCC2 | 67% | 4.09 | 0.79 µg/mL (≈ 1.96 µM) |  |
| COc1nnnc2c1sc1nc(N3CCCC3)c3c(c12)CCCC3 | 92% |  |  |  |
| CC(C)CCOc1nnnc2c1sc1nc(N3CCOCC3)c3c(c12)CCCC3 | 0% |  |  |  |
| CCCOc1nnnc2c1sc1nc(N3CCOCC3)c3c(c12)CCCC3 | 94% |  |  |  |
